US10160762B2, “6-alkyl dihydropyrazolopyrimidinone compounds as PDE2 inhibitors” (Merck Sharp & Dohme Corp., priority 2015, dated 2018)
Where two headings read alike, the source gives them in different places.

Target: T1, Rhesus PDE2A3 (Macaca mulatta, UniProt B3VTJ2)
T1 construct: made in house; host or cells: AD293 cells, transient transfection; supernatant of sonicated lysate
T1 sequence (B3VTJ2 1-941): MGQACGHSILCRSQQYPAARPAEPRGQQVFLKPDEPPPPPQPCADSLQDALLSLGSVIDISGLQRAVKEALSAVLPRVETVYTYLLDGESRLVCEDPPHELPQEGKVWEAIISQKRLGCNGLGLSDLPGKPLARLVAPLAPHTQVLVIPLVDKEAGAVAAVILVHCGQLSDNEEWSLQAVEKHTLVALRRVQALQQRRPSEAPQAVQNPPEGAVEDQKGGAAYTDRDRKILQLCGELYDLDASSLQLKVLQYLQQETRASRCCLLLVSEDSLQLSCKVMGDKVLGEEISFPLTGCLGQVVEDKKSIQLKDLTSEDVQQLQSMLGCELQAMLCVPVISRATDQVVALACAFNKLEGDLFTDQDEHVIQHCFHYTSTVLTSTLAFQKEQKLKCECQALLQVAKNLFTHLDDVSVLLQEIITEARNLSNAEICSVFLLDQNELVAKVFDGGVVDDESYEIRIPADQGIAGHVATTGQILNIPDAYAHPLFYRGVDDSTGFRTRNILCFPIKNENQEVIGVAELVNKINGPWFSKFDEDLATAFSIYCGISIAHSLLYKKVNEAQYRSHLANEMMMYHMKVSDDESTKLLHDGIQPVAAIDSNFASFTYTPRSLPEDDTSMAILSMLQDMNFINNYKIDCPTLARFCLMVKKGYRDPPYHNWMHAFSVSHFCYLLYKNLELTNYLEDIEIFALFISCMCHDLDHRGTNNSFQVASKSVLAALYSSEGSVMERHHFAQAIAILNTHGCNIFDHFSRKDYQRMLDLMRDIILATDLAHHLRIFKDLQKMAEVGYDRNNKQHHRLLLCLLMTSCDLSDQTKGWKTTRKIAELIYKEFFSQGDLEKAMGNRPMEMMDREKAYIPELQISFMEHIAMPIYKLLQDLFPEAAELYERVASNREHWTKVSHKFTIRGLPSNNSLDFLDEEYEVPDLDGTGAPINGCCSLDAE
Test: PDE2 fluorescence polarization (IMAP FP) inhibition assay, rhesus PDE2A3
Assay type: biochemical, rhesus macaque
Method in brief: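 Enzyme source was the lysate supernatant of AD293 cells transiently expressing rhesus PDE2A3, diluted to give 20% conversion of 50 nM FAM-cAMP, with 1 µM cGMP as activator. Buffer was 10 mM Tris pH 7.2, 10 mM MgCl2, 1 mM DTT.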

[1] = Lab A, read-out: Rhesus PDE2 Ki (nM) Lab A
[2] = Lab B, read-out: Rhesus PDE2 Ki (nM) Lab B

Ki [1] [nM]	Ki [2] [nM]	Structure (SMILES)
1.4	4.1	Cc1nc2c(c(CF)nn2C(c2ccc(C(F)(F)F)cc2)C(F)(F)F)c(=O)[nH]1 (stereo not drawn) [Example 201, 3-(Fluoromethyl)-6-methyl-1-(2,2,2-trifluoro-1-(4-(trifluoromethyl)phenyl)-ethyl)-1H-pyrazolo[3,4-d]pyrimidin-4(5H)-one]
~12	12	Cc1ccc(C(C)n2nc(CF)c3c(=O)[nH]c(C)nc32)cc1 (stereo not drawn) [Example 203, 3-(Fluoromethyl)-6-methyl-1-(1-p-tolylethyl)-1H-pyrazolo[3,4-d]pyrimidin-4(5H)-one]
4	–	Cc1nc2c(c(CF)nn2C(C)c2ccc(C(F)(F)F)cc2)c(=O)[nH]1 (stereo not drawn) [Example 204, 3-(Fluoromethyl)-6-methyl-1-{1-[4-(trifluoromethyl)phenyl]ethyl}-1,5-dihydro-4H-pyrazolo[3,4-d]pyrimidin-4-one]
–	3.2	COCc1nc2c(c(CF)nn2C(C)c2ccc(C(F)(F)F)cc2)c(=O)[nH]1 (stereo not drawn) [Example 205, 3-(Fluoromethyl)-6-(methoxymethyl)-1-{1-[4-(trifluoromethyl)phenyl]ethyl}-1,5-dihydro-4H-pyrazolo[3,4-d]pyrimidin-4-one]
2.3	3.4	Cc1nc2c(c(CF)nn2C(C)c2ccc(C(F)(F)F)c(F)c2)c(=O)[nH]1 (stereo not drawn) [Example 230, 1-(1-(3-Fluoro-4-(trifluoromethyl)phenyl)ethyl)-3-(fluoromethyl)-6-methyl-1H-pyrazolo[3,4-d]pyrimidin-4(5H)-one]
0.87	1.2	Cc1nc2c(c(CF)nn2C(c2ccc(C(F)(F)F)cc2)C2CC2)c(=O)[nH]1 (stereo not drawn) [Example 231, 1-(cyclopropyl(4-(trifluoromethyl)phenyl)methyl)-3-(fluoromethyl)-6-methyl-1H-pyrazolo[3,4-d]pyrimidin-4(5H)-one]
22	33	Cc1nc2c(c(C(C)O)nn2C(C)c2ccc(C(F)(F)F)cc2)c(=O)[nH]1 (stereo not drawn) [Example 328, 3-(1-Hydroxyethyl)-6-methyl-1-{1-[4-(trifluoromethyl)phenyl]ethyl}-1,5-dihydro-4H-pyrazolo[3,4-d]pyrimidin-4-one]

The next lines start with the compound.

Structure (SMILES)	Ki [1] [nM]	Ki [2] [nM]
Cc1nc2c(c(CF)nn2C2(c3ccc(C(F)(F)F)cc3)CCC2)c(=O)[nH]1 [Example 202, 3-(Fluoromethyl)-6-methyl-1-(1-(4-(trifluoromethyl)phenyl)cyclobutyl)-1H-pyrazolo[3,4-d]pyrimidin-4(5H)-one]	–	3.1
Cc1nc2c(c(CCl)nn2C(c2ccc(C(F)(F)F)cc2)C2CC2)c(=O)[nH]1 (stereo not drawn) [Example 232, 3-(chloromethyl)-1-(cyclopropyl(4-(trifluoromethyl)phenyl)methyl)-6-methyl-1H-pyrazolo[3,4-d]pyrimidin-4(5H)-one]	0.47	0.85
Cc1nc2c(c(C(C)(C)O)nn2C(C)c2ccc(C(F)(F)F)cc2)c(=O)[nH]1 (stereo not drawn) [Example 326, 3-(1-Hydroxy-1-methylethyl)-6-methyl-1-{1-[4-(trifluoromethyl)phenyl]ethyl}-1,5-dihydro-4H-pyrazolo[3,4-d]pyrimidin-4-one]	134	–
Cc1nc2c(c(C(O)C(F)(F)F)nn2C(C)c2ccc(C(F)(F)F)cc2)c(=O)[nH]1 (stereo not drawn) [Example 327, 6-Methyl-3-(2,2,2-trifluoro-1-hydroxyethyl)-1-{1-[4-(trifluoromethyl)phenyl]ethyl}-1,5-dihydro-4H-pyrazolo[3,4-d]pyrimidin-4-one]	93	–
CCC(CCCc1ccccc1)n1nc(C)c2c(=O)[nH]c(C)nc21 (stereo not drawn) [Example 338, 1-(1-ethyl-4-phenylbutyl)-3,6-dimethyl-1,5-dihydro-4H-pyrazolo[3,4-d]pyrimidin-4-one]	113	–
